Data on 13 molecules can be found in patent publication US4094966A, “Iodobenzene derivatives and X-ray contrast media containing the same” (priority 1974, dated 1978).

A short description of data set [1]: Viscosity of 28% methylglucamine salt solutions at 37° C. It is filed as physicochemical. The conditions noted are these: 28% iodine methylglucamine salt solution. As to the method:
Pharmaceutical grade injectable solutions are prepared in the form of the methylgucamine or sodium salt, containing 28, 38 or 48 g iodine per 100 ml (solutions said to contain 28%, 38% and 48% iodine).
It is apparent, from said results, that, contrary to expectations, the compounds of the formula (I) have relatively low solution viscosities.

Data set [2] in a line: Osmolality determination (FISKE osmometer). It is filed as physicochemical. The conditions noted are these: solutions containing 28% iodine; methylglucamine salts; extrapolation from successive dilutions. As to the method: Osmolality is determined by extrapolation of the values obtained on successive dilutions of solutions containing 28% or 38% iodine.
Osmolality readings are made with a FISKE Model 230/D/330 D osmometer. This apparatus indicates this measurement as milliosmoles per kg of solution. Its operation is based on the principles of cryoscopy. The determinations were made with solutions containing 28% iodine.

Another data set has as its system mice. The data set is described as follows: Acute toxicity determination, intravenous toxicity in mice. Type of data set: in vivo, mice (Swiss origin, IOPS mice of OFI strain). The conditions noted are these: 24 hours. As to the method: Intravenous toxicity determination was effected in Swiss origin, IOPS mice of OFI strain.
Each dosage level was injected to a lot of 10 mice comprising 5 male and 5 female mice.
Injections were made manually, in the caudal vein, at a rate of 2 ml/minute.
Death rate during the 24 hours after injection was recorded.

The subject of another data set is femoral artery. Description: Effect on the femoral rate of flow (peripheral vasodilatation). It is filed as in vivo, mongrels. How it is done: This test was carried out in Nembutal-anesthetized male or female 7-12 mongrels.
Nembutal was used at a dosage of 30 mg/kg, with Vetranquil pre-medication, (overall intravenous injection of 2.5 mg), respiration was spontaneous.
Rate of flow variations were recorded at the level of the right or left fermoral artery, by means of a Statham electromagnetic sensor.
The injections were made in a collateral of the fermoral artery, downstream of the sensor, by means of a catheter mounted by the retrograde route, so as not to perturb the blood flow.
The injections were made under a constant volume of 1.5 ml administered within 3-5 seconds.
The same volume of an iostonic sodium chloride solution was also injected.

Data set [3] can be described thus: Biliary clearance test in cats. Set-up: scale not given here. Type of data set: in vivo. How it is done:
This test was conducted in male or female adult cats weighing 3-4 kg.
The test material was injected intravenously, at a dosage of 0.10 g/kg iodine at the level of the internal saphenous vein. Clearance of the material was monitored by X-ray control.
X-ray pictures visualizing the gall bladder and the bladder were taken at the following times: 30 minutes, 1 hour, 2 hours, 3 hours, 4 hours, 5 hours, 6 hours.

Setting [4] is: 1.5 ml into collateral of femoral artery, 28% I, Mgl salt.
The mark [5] stands for this setting: i.v., 0.10 g I/kg, 28% I, Mgl salt.

In the case of `CNC(=O)c1c(I)c(C(=O)NCC(=O)Nc2c(I)c(C(=O)O)c(I)c(C(=O)NCCO)c2I)c(I)c(N(C)C(C)=O)c1I` [Compound 1, 2,4,6-triiodo-3-N-hydroxyethylcarbamyl-5-(2,4,6-triiodo-3-N-methylcarbamyl-5-N-methyl-N-acetylaminobenzoyl)glycylamino-benzoic acid], the Viscosity in data set [1] is given as 5.4 cps. Further, the Osmolality in data set [2] is 510 mosm/kg. In addition, the “Acute toxicity in mice, i.v.” value in the data set with mice (38% I, Mgl salt) worked out at 11.5 grams I/kg. Also, the “Peripheral vasodilatation, femoral rate of flow” value (“Peripheral vasodilatation” below) in the data set with femoral artery (in vivo) is given as “+”. Moreover, the “Biliary clearance in cat, i.v.” value in data set [3] (in vivo, iv) is given as “±”.

For the molecule `CNC(=O)c1c(I)c(NC(=O)CCCNC(=O)c2c(I)c(C(=O)NC)c(I)c(N(C)C(C)=O)c2I)c(I)c(C(=O)O)c1I` [Compound 2, 2,4,6-triiodo-3-N-methylcarbamyl-5-(2,4,6-triiodo-3-N-methylcarbamyl-5-N-methylacetamido-benzoyl)-γ-aminobutyrylamino-benzoic acid], the Viscosity in data set [1] came to 6.56 cps. In data set [2], the Osmolality is given as 475 mosm/kg. Besides, in the data set on mice (28% I, Mgl salt), the “Acute toxicity in mice, i.v.” value is reported as 9.5 grams I/kg. In addition, the “Peripheral vasodilatation” value with femoral artery (setting [4]) was “+”. For the same molecule, the “Biliary clearance in cat, i.v.” value in data set [3] (setting [5]) amounted to 0.

As for `CNC(=O)c1c(I)c(NC(C)=O)c(I)c(C(=O)NCC(=O)Nc2c(I)c(C(=O)O)c(I)c(C(=O)NCCO)c2I)c1I` [Compound 3, 2,4,6-triiodo-3-N-hydroxyethylcarbamyl-5-(2,4,6-triiodo-3-N-methylcarbamyl-5-acetamidio-benzoyl)-glycylaminobenzoic acid], the Viscosity in data set [1] is recorded as 5.72 cps. Further, the Osmolality in data set [2] is recorded as 550 mosm/kg. In the data set on mice (28% I, Mgl salt), the “Acute toxicity in mice, i.v.” value is recorded as 9-10 grams I/kg. For the same molecule, the “Peripheral vasodilatation” value with femoral artery (setting [4]) is reported as “+”.

As for `CC(=O)Nc1c(I)c(C(=O)NCC(=O)Nc2c(I)c(C(=O)O)c(I)c(C(=O)NCCO)c2I)c(I)c(N(C)C(C)=O)c1I` [Compound 6, 2,4,6-triiodo-3-N-hydroxyethylcarbamyl-5-(2,4,6-triiodo-3-acetamido-5-N-methylacetamido-benzoyl)-glycylamino-benzoic acid], the Viscosity in data set [1] was found to be 5.2 cps. The Osmolality in data set [2] is given as 480 mosm/kg. In addition, the “Acute toxicity in mice, i.v.” value with mice (28% I, Mgl salt) is 10 grams I/kg. For the same molecule, the “Peripheral vasodilatation” value in the data set with femoral artery (setting [4]) is on record as “+”. Besides, the “Biliary clearance in cat, i.v.” value in data set [3] (setting [5]) is recorded as 0.

Consider `CNC(=O)c1c(I)c(NC(=O)CNC(=O)c2c(I)c(C(=O)NCCO)c(I)c(N(C)C(C)=O)c2I)c(I)c(C(=O)O)c1I` [Compound 8, 2,4,6-triiodo-3-N-methylcarbamyl-5-(2,4,6-triiodo-3-N-hydroxyethylcarbamyl-5-N-methylacetamido-benzoyl)glycyl amino-benzoic acid], for which, in data set [1], the Viscosity is recorded as 5.5 cps. In data set [2], the Osmolality is listed as 535 mosm/kg. The “Acute toxicity in mice, i.v.” value in the data set with mice (28% I, Mgl salt) amounted to 12 grams I/kg. In addition, the “Peripheral vasodilatation” value with femoral artery (setting [4]) is listed as “++”. In addition, the “Biliary clearance in cat, i.v.” value in data set [3] (setting [5]) was “±”.

In the case of `CNC(=O)c1c(I)c(NC(=O)CNC(=O)c2c(I)c(C(=O)NC)c(I)c(N(C)C(C)=O)c2I)c(I)c(C(=O)O)c1I` [Compound 9, 2,4,6-triiodo-3-N-methylcarbamyl-5-(2,4,6-triiodo-3-N-methylcarbamyl-5-N-methylacetamido-benzoyl)-glycylamino-benzoic acid], in data set [1], the Viscosity was 5.8 cps. In data set [2], the Osmolality is recorded as 440 mosm/kg. Moreover, in the data set on mice (38% I, Mgl salt), the “Acute toxicity in mice, i.v.” value amounted to 11.5 grams I/kg. The “Peripheral vasodilatation” value in the data set with femoral artery (1.5 ml into collateral of femoral artery, 38% I, Mgl salt) is recorded as “+”. The “Biliary clearance in cat, i.v.” value in data set [3] (i.v., 0.10 g I/kg, 38% I, Mgl salt) was “++”.

On to `CNC(=O)c1c(I)c(NC(C)=O)c(I)c(C(=O)NCC(=O)N(C)c2c(I)c(C(=O)O)c(I)c(C(=O)NC)c2I)c1I` [Compound 14, 2,4,6-triiodo-3-N-methylcarbamyl-5-(2,4,6-triiodo-3-N-methylcarbamyl-5-acetamido-benzoyl)-glycyl-N-methylamino-benzoic acid], for which, in data set [1], the Viscosity is recorded as 5.2 cps. For the same molecule, the Osmolality in data set [2] is given as 600 mosm/kg. In addition, the “Acute toxicity in mice, i.v.” value with mice (28% I, Mgl salt) is 12 grams I/kg. Besides, the “Peripheral vasodilatation” value in the data set with femoral artery (setting [4]) is on record as “+”. Further, the “Biliary clearance in cat, i.v.” value in data set [3] (setting [5]) is listed as “+”.

Regarding `CNC(=O)c1c(I)c(C(=O)NC(C)C(=O)Nc2c(I)cc(I)c(C(=O)O)c2I)c(I)c(N(C)C(C)=O)c1I` (stereo not drawn) [Compound 23, 2,4,6-triiodo-3-(2,4,6-triiodo-3-N-methyl-carbamyl-5-N-methylacetamido-benzoyl)-α-aminoproionylamino-benzoic acid], the Osmolality in data set [2] was 535 mosm/kg. In the data set on mice (28% I, Mgl salt), the “Acute toxicity in mice, i.v.” value was 3.5 grams I/kg. The “Peripheral vasodilatation” value in the data set on femoral artery (setting [4]) was “+++”. In addition, the “Biliary clearance in cat, i.v.” value in data set [3] (setting [5]) was “++++”.

Consider `CNC(=O)c1c(I)c(C(=O)NCC(=O)Nc2c(I)c(NC(C)=O)c(I)c(C(=O)O)c2I)c(I)c(N(C)C(C)=O)c1I` [Compound 25, 2,4,6-triiodo-3-acetamido-5-(2,4,6-triiodo-3-N-methylcarbamyl-5-N-methylacetamido-benzoyl)glycylamino-benzoic acid], for which the Osmolality in data set [2] is listed as 925 mosm/kg. In addition, the “Acute toxicity in mice, i.v.” value in the data set on mice (34% I, Na salt) is 9 grams I/kg. For the same molecule, the “Peripheral vasodilatation” value in the data set with femoral artery (1.5 ml into collateral of femoral artery, 34% I, Na salt) is given as “++”. The “Biliary clearance in cat, i.v.” value in data set [3] (i.v., 0.10 g I/kg, 34% I, Na salt) is recorded as 0.

For the molecule `CNC(=O)c1c(I)c(NC(C)=O)c(I)c(C(=O)NCC(=O)Nc2c(I)c(C(=O)O)c(I)c(N(C)C(C)=O)c2I)c1I` [Compound 26, 12,4,6-triiodo-3-N-methylacetamido-5-(2,4,6-triiodo-3-N-methylcarbamyl-5-acetamido-benzoyl)-glycylamino-benzoic acid], the Osmolality in data set [2] was 500 mosm/kg. The “Acute toxicity in mice, i.v.” value in the data set with mice (38% I, Na salt) worked out at 13 grams I/kg. Also, in the data set with femoral artery (1.5 ml into collateral of femoral artery, 38% I, Na salt), the “Peripheral vasodilatation” value was “++”. Further, in data set [3] (i.v., 0.10 g I/kg, 38% I, Na salt), the “Biliary clearance in cat, i.v.” value was 0.

In the case of `CNC(=O)c1c(I)c(C(=O)NCCCC(=O)N(C)c2c(I)c(C(=O)O)c(I)c(C(=O)NC)c2I)c(I)c(N(C)C(C)=O)c1I` [Compound 37, 2,4,6-triiodo-3-N-methylcarbamyl-5-(2,4,6-triiodo-3-N-methylcarbamyl-5-N-methylacetamido-benzoyl)-γ-aminobutyryl-N-methylamino-benzoic acid], the Osmolality in data set [2] is reported as 730 mosm/kg. In addition, the “Acute toxicity in mice, i.v.” value with mice (28% I, Mgl salt) was below 6 grams I/kg. Besides, the “Peripheral vasodilatation” value with femoral artery (setting [4]) is reported as “++++”. Also, the “Biliary clearance in cat, i.v.” value in data set [3] (setting [5]) is recorded as “++”.

In the case of `CNC(=O)c1c(I)c(NC(C)=O)c(I)c(C(=O)O)c1I` [a, 2,4,6-Triiodo-3-N-methylcarbamyl-5-acetamido-benzoic acid, reference compound], the Osmolality in data set [2] is listed as 1410 mosm/kg. In the data set with mice (28% I, Mgl salt), the “Acute toxicity in mice, i.v.” value is 5.4 grams I/kg. Moreover, in the data set with femoral artery (setting [4]), the “Peripheral vasodilatation” value was “+++”. In addition, the “Biliary clearance in cat, i.v.” value in data set [3] (in vivo, iv) turned out to be 0.

On to `CC(=O)Nc1c(I)c(C(=O)O)c(I)c(C(=O)NCCO)c1I` [b, 2,4,6-Triiodo-3-N-hydroxyethylcarbamyl-5-acetamido-benzoic acid, reference compound], for which, in data set [2], the Osmolality was 1390 mosm/kg. Also, in the data set on mice (30% I, Mgl salt), the “Acute toxicity in mice, i.v.” value is listed as 5.6 grams I/kg. In addition, the “Peripheral vasodilatation” value with femoral artery (1.5 ml into collateral of femoral artery, 30% I, Mgl salt) was “+++”. The “Biliary clearance in cat, i.v.” value in data set [3] (i.v., 0.10 g I/kg, 30% I, Mgl salt) is listed as 0.
